{"source": "patent US20100105651A1", "about": "“ANTAGONISTS OF SNS SODIUM CHANNELS” (priority 2005, published 2010)", "note": "pIC50: −log10 of the molar value."}
{"biological_target": "T1, human NaV1.8 (hNaV1.8) ion channel (Homo sapiens, UniProt Q9Y5Y9)", "T1 construct": "expressed in transfected cells", "T1 sequence (Q9Y5Y9 whole entry)": "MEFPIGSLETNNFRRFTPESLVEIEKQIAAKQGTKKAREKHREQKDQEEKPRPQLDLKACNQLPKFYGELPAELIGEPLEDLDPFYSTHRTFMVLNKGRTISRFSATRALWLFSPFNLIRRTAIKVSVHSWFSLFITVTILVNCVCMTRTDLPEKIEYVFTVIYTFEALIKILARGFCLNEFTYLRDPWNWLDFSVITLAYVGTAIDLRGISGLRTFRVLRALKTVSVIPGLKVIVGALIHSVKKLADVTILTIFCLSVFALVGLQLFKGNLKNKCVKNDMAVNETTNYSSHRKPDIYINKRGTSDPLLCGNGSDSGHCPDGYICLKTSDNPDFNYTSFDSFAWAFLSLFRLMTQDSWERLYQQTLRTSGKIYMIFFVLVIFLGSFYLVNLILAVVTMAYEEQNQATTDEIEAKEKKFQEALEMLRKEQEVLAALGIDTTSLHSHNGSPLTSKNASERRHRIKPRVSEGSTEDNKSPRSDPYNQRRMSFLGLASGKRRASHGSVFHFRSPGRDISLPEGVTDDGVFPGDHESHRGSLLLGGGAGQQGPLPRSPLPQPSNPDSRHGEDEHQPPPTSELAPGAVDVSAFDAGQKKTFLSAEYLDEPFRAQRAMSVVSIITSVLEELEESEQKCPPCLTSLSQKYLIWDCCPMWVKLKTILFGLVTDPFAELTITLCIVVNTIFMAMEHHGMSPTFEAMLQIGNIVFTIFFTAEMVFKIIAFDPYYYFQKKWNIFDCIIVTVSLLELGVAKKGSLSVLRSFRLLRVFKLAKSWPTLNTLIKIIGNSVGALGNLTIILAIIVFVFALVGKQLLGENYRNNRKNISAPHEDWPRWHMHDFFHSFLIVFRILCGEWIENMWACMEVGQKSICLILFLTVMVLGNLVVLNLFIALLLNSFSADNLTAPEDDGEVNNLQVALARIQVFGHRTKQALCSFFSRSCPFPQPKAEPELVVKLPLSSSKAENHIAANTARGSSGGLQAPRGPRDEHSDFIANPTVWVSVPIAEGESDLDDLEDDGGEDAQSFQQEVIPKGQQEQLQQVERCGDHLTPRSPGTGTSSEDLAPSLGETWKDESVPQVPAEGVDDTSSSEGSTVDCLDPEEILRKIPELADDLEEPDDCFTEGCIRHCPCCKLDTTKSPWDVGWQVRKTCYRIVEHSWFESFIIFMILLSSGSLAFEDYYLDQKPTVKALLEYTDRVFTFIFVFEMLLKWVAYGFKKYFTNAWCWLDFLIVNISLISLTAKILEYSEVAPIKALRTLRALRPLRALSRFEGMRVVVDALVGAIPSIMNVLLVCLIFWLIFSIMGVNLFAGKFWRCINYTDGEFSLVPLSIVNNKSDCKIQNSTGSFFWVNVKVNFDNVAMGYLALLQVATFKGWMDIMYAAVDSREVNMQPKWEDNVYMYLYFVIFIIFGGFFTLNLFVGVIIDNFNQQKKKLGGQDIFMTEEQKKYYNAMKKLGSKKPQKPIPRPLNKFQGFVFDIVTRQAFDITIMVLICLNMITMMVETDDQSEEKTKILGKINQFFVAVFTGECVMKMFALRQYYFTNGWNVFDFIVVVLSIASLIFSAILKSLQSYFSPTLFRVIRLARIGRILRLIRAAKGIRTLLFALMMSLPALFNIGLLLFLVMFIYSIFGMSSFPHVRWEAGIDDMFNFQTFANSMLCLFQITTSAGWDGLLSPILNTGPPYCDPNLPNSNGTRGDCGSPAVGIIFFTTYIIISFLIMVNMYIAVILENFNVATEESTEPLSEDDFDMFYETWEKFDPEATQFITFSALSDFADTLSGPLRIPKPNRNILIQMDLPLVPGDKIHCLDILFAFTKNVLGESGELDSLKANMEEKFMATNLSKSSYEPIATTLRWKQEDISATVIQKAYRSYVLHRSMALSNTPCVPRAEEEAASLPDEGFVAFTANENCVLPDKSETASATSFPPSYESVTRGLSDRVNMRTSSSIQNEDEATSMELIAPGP", "test": "Inhibition of Human NaV1.8 stably expressed in SH-SY-5Y cells (membrane potential dye fluorescence assay)", "format": "cell-based", "settings": "SH-SY-5Y cells stably expressing hNaV1.8; FLIPR membrane potential dye; 10 μM pyrethroid, 250 nM TTX; test range 100 μM-0.05 μM; read-out: hNav1.8 IC50", "protocol": "Inhibition of Human NaV1.8 stably expressed in SH-SY-5Y cells\nA SH-SY-5Y neuroblastoma cell line stably expressing the human NaV1.8 (hNaV1.8) ion channel was constructed. This cell line has been used to develop a medium to high throughput assay for determining the ability of test compounds to inhibit membrane depolarisation mediated via the hNaV1.8 channel.\nSH-SY-5Y hNaV1.8 are grown in adherent monolayer culture using 50:50 Ham's F-12/EMEM tissue culture medium supplemented with 15% (v/v) foetal bovine serum; 2 mM L-glutamine, 1% NEAA and 600 μg·ml^−1 Geneticin sulphate. Cells are removed from the tissue culture flask using trypsin/EDTA and re-plated into black walled, clear bottom 96-well assay plates at 50,000 cells·well^−1 24 hours prior to assay.\nOn the day of assay the cell assay plates are washed to remove cell culture medium using a sodium free assay buffer (145 mM tetramethyl ammonium chloride; 2 mM calcium chloride; 0.8 mM magnesium chloride hexahydrate; 10 mM HEPES; 10 mM glucose; 5 mM potassium chloride, pH 7.4). Fluorescent membrane potential dye solution (FLIPR™ membrane potential dye, Molecular Devices Corporation), containing 10 μM of a pyrethroid to prevent channel inactivation and 250 nM tetrodotoxin (TTX) to reduce interference from TTX-sensitive sodium channels present in the cell line. Test compound, initially dissolved in dimethyl sulfoxide but further diluted in sodium free buffer, is added to achieve the final test concentration range of 100 μM-0.05 μM.\nCell plates are incubated for 30 minutes at room temperature to allow equilibration of dye and test compound. Plates are then transferred to a fluorescence plate reader for fluorescence measurement using an excitation wavelength of 530 nm whilst measuring fluorescence emission at 565 nm. […] Membrane depolarisation is registered by an increase in fluorescence emission at 565 nm.\nThe change in fluorescence seen in each test well upon the addition of sodium containing buffer is calculated relative to the baseline fluorescence for that well. This figure is then used for calculating the IC50 for each test compound."}
{"smiles": "O=C(Nc1ccc(C(F)(F)F)cc1)N1CC(NC2CCCc3ccccc32)C1", "note": "(stereo not shown) [Example 36, 3-(1,2,3,4-Tetrahydro-naphthalen-1-ylamino)-azetidine-1-carboxylic acid (4-trifluoromethyl-phenyl)-amide]", "pIC50": 5.56}
{"smiles": "CN(C1CN(C(=O)Nc2ccc(Oc3ccc(F)cc3)cc2)C1)C1CCc2cc(F)ccc21", "note": "(stereo not shown) [Example 37, 3-[(5-Fluoro-indan-1-yl)-methyl-amino]-azetidine-1-carboxylic acid [4-(4-fluoro-phenoxy)-phenyl]-amide]", "pIC50": 6.38}
{"smiles": "CN(C1CN(C(=O)Nc2ccc(Oc3ccccc3)cc2)C1)C1CCc2cc(F)ccc21", "note": "(stereo not shown) [Example 38, 3-[(5-Fluoro-indan-1-yl)-methyl-amino]-azetidine-1-carboxylic acid (4-phenoxy-phenyl)-amide]", "pIC50": 6.25}
{"smiles": "CN(C1CN(C(=O)Nc2ccc(C(F)(F)F)cc2)C1)C1CCc2cc(F)ccc21", "note": "(stereo not shown) [Example 39, 3[(5-Fluoro-indan-1-yl)-methyl-amino]-azetidine-1-carboxylic acid (4-trifluoromethyl-phenyl)-amide]", "pIC50": 5.69}
{"smiles": "CN(C1CN(C(=O)Nc2cccc(C(F)(F)F)c2)C1)C1CCc2cc(F)ccc21", "note": "(stereo not shown) [Example 40, 3[(5-Fluoro-indan-1-yl)-methyl-amino]-azetidine-1-carboxylic acid (3-trifluoromethyl-phenyl)-amide]", "pIC50": 5.64}
{"smiles": "CC1(NC2CCc3cc(F)ccc32)CN(C(=O)Nc2ccc(Oc3ccc(F)cc3)cc2)C1", "note": "(stereo not shown) [Example 41, 3-(5-Fluoro-indan-1-ylamino)-3-methyl-azetidine-1-carboxylic acid [4-(4-fluoro-phenoxy)-phenyl]-amide]", "pIC50": 6.25}
{"smiles": "CC1(NC2CCc3ccccc3C2)CN(C(=O)Nc2ccc(C(F)(F)F)cc2)C1", "note": "(stereo not shown) [Example 42, 3-Methyl-3-(1,2,3,4-tetrahydro-naphthalen-2-ylamino)-azetidine-1-carboxylic acid (4-trifluoromethyl-phenyl)-amide]", "pIC50": 6.16}
{"smiles": "O=C(c1ccc(Oc2ccc(F)cc2)cc1)N1CC(NC2CCc3cc(F)ccc32)C1", "note": "(stereo not shown) [Example 43, [3-(5-Fluoro-indan-1-ylamino)-azetidin-1-yl]-[4-(4-fluoro-phenoxy)-phenyl]-methanone]", "pIC50": 6.62}
{"smiles": "CC(NC1CN(C(=O)c2ccc(Oc3ccccc3)cc2)C1)c1ccccc1", "note": "(stereo not shown) [Example 44, (4-Phenoxy-phenyl)-[3-(1-phenyl-ethylamino)-azetidin-1-yl]-methanone]", "pIC50": 6.14}
{"smiles": "O=C(Cc1ccc(Oc2ccccc2)cc1)N1CC(NC2Cc3ccccc3C2)C1", "note": "[Example 45, 1-[3-(Indan-2-ylamino)-azetidin-1-yl]-2-(4-phenoxy-phenyl)-ethanone]", "pIC50": 6.19}
{"smiles": "CC(NC1CN(C(=O)Cc2ccc(Oc3ccccc3)cc2)C1)c1ccccc1", "note": "(stereo not shown) [Example 46, 2-(4-Phenoxy-phenyl)-1-[3-(1-phenyl-ethylamino)-azetidin-1-yl]-ethanone]", "pIC50": 5.97}
{"smiles": "O=C(Cc1ccc(Oc2ccccc2)cc1)N1CC(NC2CCc3cc(F)ccc32)C1", "note": "(stereo not shown) [Example 47, 1-[3-(5-Fluoro-indan-1-ylamino)-azetidin-1-yl]-2-(4-phenoxy-phenyl)-ethanone]", "pIC50": 5.78}
{"smiles": "O=C(Cc1ccc(Oc2ccc(F)cc2)cc1)N1CC(NC2CCc3cc(F)ccc32)C1", "note": "(stereo not shown) [Example 48, 1-[3-(5-Fluoro-indan-1-ylamino)-azetidin-1-yl]-2-[4-(4-fluoro-phenoxy)-phenyl]-ethanone]", "pIC50": 6.16}
{"smiles": "O=C(Cc1ccc(Oc2ccc(F)cc2)cc1)N1CC(NC2Cc3ccccc3C2)C1", "note": "[Example 49, 2-[4-(4-Fluoro-phenoxy)-phenyl]-1-[3-(indan-2-ylamino)-azetidin-1-yl]-ethanone]", "pIC50": 6.37}
{"smiles": "O=C(Cc1ccc(Oc2ccc(F)cc2)cc1)N1CC(NC2Cc3ccc(F)cc3C2)C1", "note": "(stereo not shown) [Example 50, 1-[3-(5-Fluoro-indan-2-ylamino)-azetidin-1-yl]-2-[4-(4-fluoro-phenoxy)-phenyl]-ethanone]", "pIC50": 6.11}
{"smiles": "C=CCOc1ccccc1CNC1CN(C(=O)Nc2ccc(OCc3ccccc3)cc2)C1", "note": "[Example 51, 3-(2-Allyloxy-benzylamino)-azetidine-1-carboxylic acid (4-benzyloxy-phenyl)-amide]", "pIC50": 6.47}
